{
  "source": "patent US7985773B2",
  "about": "(American Sterilizer Company, priority 2004, dated 2011)",
  "test_system": "Serratia marcescens ATCC 14756",
  "experiment": "Residual activity testing procedure on pigskin",
  "format": "cell-based",
  "details": "for Average Log Reduction: average of two series; for log reduction values and antimicrobial activity (in words): compositions of Table V, additive at 0.5 parts per 100 parts; for Log Value: log of colony forming units remaining; for Log Value / Log Reduction: single series; for antimicrobial activity (in words): additives of Table II in the Table I base; for antimicrobial activity (in words) / Average Series: FIG. 1; for Average Series: average log reduction of all four series",
  "method": "The gram negative organism was grown for approximately 24 hours at 30° C. and then suspended in Butterfields Buffer to a count of 1×10^8. The pigskins were prepared according to the following standard of procedure. Pigskin hides are collected on the date of slaughter and processed on the same day by removing adipose tissue and thoroughly cleaning the hide. Both of these processes are accomplished by spraying both sides of the pig hide with a high pressure washer. No soap or detergents are used at any time during the processing of pig hides for laboratory use. After cleaning and de-fatting, pigskins are placed in water and frozen at the farm from which they were harvested. When required for laboratory testing, a representative procures the hides and thaws them for laboratory manipulation. In the laboratory, these hides are cut into manageable pieces with a scalpel and coarse hair removed with animal grooming clippers. Disposable razors are further employed to create a smooth surface without negatively affecting the skin surface. These pieces are then sterilized by Gamma irradiation and kept frozen until use in a study. Testing circles were then punched out of the pigskins and glued to a phenolic cap. The testing samples were placed in a 30° C. oven to equilibrate for at least 20 minutes. Each skin was treated with 150 μl of test product and rubbed for 30 seconds as a pair, skin to skin. The skins were allowed to dry for 30 seconds and then the test product was reapplied four times in the same manner. The skins were allowed to dry in a slightly opened hood for 15 minutes. After drying the skins were inoculated with 31 μl of the Serratia marcescens inoculum, as prepared above, rubbed for 15 seconds, and sampled after three minutes. To sample, a sterile 3.5 cm diameter cylinder is placed, lip side down, over the pigskin on the cap. Enough pressure is applied to the cylinder to prevent any leakage upon the addition of an appropriate volume of liquid sampling solution to the cylinder. The skin is then debrided, using a sterile policeman, for 30 seconds by rubbing the surface of the skin with the flat edge of the policeman with enough pressure to remove any microorganisms that might be on the surface. Two mL of the sampling solution are removed using a sterile pipet and are utilized for preparing serial dilutions and aerobic plate counts to establish the number of Colony Forming Units remaining.",
  "key": {"[1]": {"details": "additive at 0.5 parts by weight per 100 parts total composition in the Table I base, FIG. 2"}, "[2]": {"details": "additive at 0.5 parts by weight per 100 parts total composition in the Table I base"}, "[3]": {"details": "additive at the active % listed in Table III in the Table I base"}, "[4]": {"details": "additive at the active % listed in Table III in the Table I base, pigskin residual activity"}},
  "note": "Where “and” joins values, the source holds several entries; their conditions need not be identical. Equal values may be shown once.",
  "data": [
    {"molecule": "CCCCCCCCCCCCCCCCCCCCCC[N+](C)(C)Cc1ccccc1.[Cl-]", "note": "[Behenalkonium chloride, Behenalkonium Chloride]", "values": [
      {"measurement": "Average Log Reduction", "setting": "[1]", "result": 4.41},
      {"measurement": "log reduction values and antimicrobial activity (in words)", "result": "excellent log reduction values"},
      {"measurement": "Log Value", "setting": "[2]", "result": "1.60 and 1.78"},
      {"measurement": "Log Reduction", "setting": "[2]", "result": "4.50 and 4.32"}
    ]},
    {"molecule": "CCCCCCCCCCCCCCCCCCCCCC[N+](C)(C)C.[Cl-]", "note": "[Behentrimonium chloride]", "values": [
      {"measurement": "Average Log Reduction", "setting": "[1]", "result": 0.33},
      {"measurement": "Log Value", "setting": "[2]", "result": "5.78 and 5.76"},
      {"measurement": "Log Reduction", "setting": "[2]", "result": "0.32 and 0.34"}
    ]},
    {"molecule": "CCCCCCCCCCCCCCCCCCCCCC[N+](C)(C)C.COS(=O)(=O)[O-]", "note": "[Behentrimonium methosulfate]", "values": [
      {"measurement": "antimicrobial activity (in words)", "result": "enhanced antimicrobial activity"},
      {"measurement": "Average Series", "setting": "[3]", "result": 5.39},
      {"measurement": "Average Log Reduction", "setting": "[1]", "result": 5.25},
      {"measurement": "log reduction values and antimicrobial activity (in words)", "result": "excellent log reduction values"}
    ]},
    {"molecule": "CC(C)(C)CC(C)(C)c1ccc(OCCOCC[N+](C)(C)Cc2ccccc2)cc1", "note": "[Benzethonium Chloride, Benzethonium chloride]", "values": [
      {"measurement": "Average Series", "setting": "[3]", "result": 0.17}
    ]},
    {"molecule": "CCCCCCCCCCCCCCCC[N+](C)(C)C.[Cl-]", "note": "[Cetrimonium chloride]", "values": [
      {"measurement": "Average Log Reduction", "setting": "[1]", "result": 1.24},
      {"measurement": "Log Value", "setting": "[2]", "result": "4.87 and 4.85"},
      {"measurement": "Log Reduction", "setting": "[2]", "result": "1.23 and 1.25"}
    ]},
    {"molecule": "C[N+](C)(C)CCCNC(=O)C=Cc1ccccc1.[Cl-]", "note": "[Cinnamidopropyl trimethylammonium chloride]", "values": [
      {"measurement": "Average Log Reduction", "setting": "[1]", "result": 0.05},
      {"measurement": "Log Value", "setting": "[2]", "result": "5.98 and 6.12"},
      {"measurement": "Log Reduction", "setting": "[2]", "result": "0.12 and −0.02"}
    ]},
    {"molecule": "CCCCCCCCCC(=O)OCC(O)CO", "note": "(stereo not shown) [Glyceryl caprate]", "values": [
      {"measurement": "Log Value", "setting": "[2]", "result": "5.17 and 5.19"}
    ]},
    {"molecule": "CCCCCCCCCCCC(=O)OCC(O)CO", "note": "(stereo not shown) [Glyceryl monolaurate]", "values": [
      {"measurement": "Average Series", "setting": "[3]", "result": "−0.21"}
    ]},
    {"molecule": "CCCCCCCCCCCCCCCCCCCCCC(=O)NCCC[N+](C)(C)CCO.[Cl-]", "note": "[Hydroxyethyl behenamidopropyldimonium chloride]", "values": [
      {"measurement": "Average Log Reduction", "setting": "[1]", "result": 0.63}
    ]},
    {"molecule": "COC(=O)c1ccc(O)cc1", "note": "[Methyl paraben]", "values": [
      {"measurement": "Average Series", "setting": "[3]", "result": 0.03}
    ]},
    {"molecule": "CCCCCCCC/C=C\\CCCCCCCC[N+](C)(C)Cc1ccccc1.[Cl-]", "note": "[Olealkonium chloride, Olealkonium Chloride]", "values": [
      {"measurement": "Average Log Reduction", "setting": "[1]", "result": 0.31},
      {"measurement": "Log Value", "setting": "[2]", "result": "5.76 and 5.81"},
      {"measurement": "Log Reduction", "setting": "[2]", "result": "0.34 and 0.29"}
    ]},
    {"molecule": "Cc1cc(O)cc(C)c1Cl", "note": "[PCMX]", "values": [
      {"measurement": "Average Series", "setting": "[3]", "result": 0.16},
      {"measurement": "Average Log Reduction", "setting": "[4]", "result": "0.06 and 0.26"}
    ]},
    {"molecule": "OCCOc1ccccc1", "note": "[Phenoxyethanol, Phenoxyethanol (ethylene glycol phenyl ether)]", "values": [
      {"measurement": "antimicrobial activity (in words)", "result": "enhanced antimicrobial activity"},
      {"measurement": "Average Series", "setting": "[3]", "result": 3.39}
    ]},
    {"molecule": "CCCOC(=O)c1ccc(O)cc1", "note": "[Propyl paraben]", "values": [
      {"measurement": "Average Series", "setting": "[3]", "result": 0.40}
    ]},
    {"molecule": "CCCCCCCCCCCCCCCCCC[N+](C)(C)Cc1ccccc1.[Cl-]", "note": "[Stearalkonium chloride]", "values": [
      {"measurement": "Average Log Reduction", "setting": "[1]", "result": 0.25},
      {"measurement": "Log Value", "setting": "[2]", "result": "5.93 and 5.77"},
      {"measurement": "Log Reduction", "setting": "[2]", "result": "0.17 and 0.33"}
    ]},
    {"molecule": "CC(O)C(=O)O.CCCCCCCCCCCCCCCCCC(=O)NCCCN(C)C", "note": "[Stearamidopropyl dimethylamine lactate]", "values": [
      {"measurement": "Log Value", "setting": "[2]", "result": "6.22 and 6.05"}
    ]},
    {"molecule": "Oc1cc(Cl)ccc1Oc1ccc(Cl)cc1Cl", "note": "[Triclosan]", "values": [
      {"measurement": "Average Series", "setting": "[3]", "result": "−0.04"}
    ]},
    {"molecule": "Babbassuamidopropalkonium Chloride", "values": [
      {"measurement": "Average Log Reduction", "setting": "[1]", "result": 0.35},
      {"measurement": "Log Value", "setting": "[2]", "result": "5.82 and 5.68"},
      {"measurement": "Log Reduction", "setting": "[2]", "result": "0.28 and 0.42"}
    ]},
    {"molecule": "Cocoamidopropyl PG dimonium chloride", "values": [
      {"measurement": "Average Series", "setting": "[3]", "result": "−0.04"},
      {"measurement": "Average Log Reduction", "setting": "[4]", "result": "−0.13 and 0.04"}
    ]},
    {"molecule": "IPEG-3 Dioleylamidoethylmonium methosulfate", "values": [
      {"measurement": "Average Log Reduction", "setting": "[1]", "result": 0.27},
      {"measurement": "Log Value", "setting": "[2]", "result": "5.84 and 5.81"},
      {"measurement": "Log Reduction", "setting": "[2]", "result": "0.26 and 0.29"}
    ]},
    {"molecule": "Isostearyamidopropyl morpholine lactate", "values": [
      {"measurement": "Average Log Reduction", "setting": "[1]", "result": "−0.09"},
      {"measurement": "Log Value", "setting": "[2]", "result": "6.17 and 6.20"},
      {"measurement": "Log Reduction", "setting": "[2]", "result": "−0.07 and −0.10"}
    ]},
    {"molecule": "Quaternium 26", "values": [
      {"measurement": "Average Log Reduction", "setting": "[1]", "result": "−0.07"},
      {"measurement": "Log Value", "setting": "[2]", "result": "6.20 and 6.13"},
      {"measurement": "Log Reduction", "setting": "[2]", "result": "−0.11 and −0.03"}
    ]},
    {"molecule": "Sodium Coco PG-Dimonium chloride phosphate", "values": [
      {"measurement": "Average Log Reduction", "setting": "[1]", "result": 0.40},
      {"measurement": "Log Value", "setting": "[2]", "result": "5.69 and 5.71"},
      {"measurement": "Log Reduction", "setting": "[2]", "result": "0.41 and 0.39"}
    ]}
  ]
}
